Measurements: patent US10106523B2, “Amide compound” (ASTELLAS PHARMA INC., priority 2014, dated 2018)

What was measured:
[1] = tested on: SD rats; experiment: Evaluation on rat gastrointestinal disorder (7-day oral administration, hematology, blood chemistry, histopathology); type: in vivo; settings: 3 mg/kg po for 7 days
Protocol: Test Example 10: Evaluation on Rat Gastrointestinal Disorder
SD rats (male, 7-week old) were used. A test compound dissolved in a mixed solution of PEG 400: 20% Tween 80: 1 mol/L aqueous NaHCO3 solution=1:4:5 was orally administered at a dose of 3 mg/kg (n=5, 5 mL/kg) for 7 days. The aforementioned mixed liquid was orally administered to a group not treated with the test drug (n=5) at a volume of 5 mL/kg for 7 days. Blood was collected under fasting overnight for hematology and blood chemistry tests on the following day after the final administration. After blood collection, the animal which had been euthanized by exsanguination was immediately necropsied, and the stomach, duodenum, jejunum, ileum, cecum, colon, rectum, and liver were excised therefrom. The excised organs were fixed in a 10% neutral buffered formalin solution and used for histopathological evaluation.

[2] = tested on: 5/6 nephrectomy rats with chronic renal failure; experiment: Effect on renal function of 5/6 nephrectomy (5/6 Nx) rats with chronic renal failure; type: in vivo, rat; settings: 5/6 Nx Wistar rats, 0.2 mg/kg po once per day for 6 weeks
Protocol: Test Example 8: Test for Investigation of Effect on Renal Function of 5/6 Nephrectomy (5/6 Nx) of Rats with Chronic Renal Failure
Wistar rats (male, 8-Week-old) were used for the test. Two-thirds of the left kidney was removed under pentobarbital anesthesia, and after 1 week, the entire right kidney was nephrectomized (5/6 Nx). After 2 weeks from 5/6 Nx, the protein concentrations in urine samples obtained by urine collection for 24 hours were measured using a Bio-Rad Protein assay kit, and the creatinine concentration in urine was measured using Determiner L CRE (Kyowa Medex Co., Ltd.)). The urinary protein-creatinine ratio (UPCR) was calculated, and a group (n=12) not treated with the test compound and a group (n=12) treated with the test compound were allocated without a bias in UPCR. The test compound suspended in a 0.5% MC solution was orally administered to the group treated with the test compound at a dose of 0.2 mg/kg once per day for 6 weeks (5 mL/kg). […] Urine was collected for 24 hours from the completion of the final administration, and using the calculated UPCR as an indicator, the improvement effect of the test compound on the nephropathy of the rat with chronic renal failure was investigated. The inhibitory rate of UPCR of the group treated with the test compound when the UPCR value of the group not treated with the test compound was taken as 100% was determined.

[3] = tested on: renin activity in rat plasma; experiment: Action on renin activity in rat plasma (PRA increase due to EP4 agonist ONO-AE1-437); type: in vivo; settings: SD rats, 0.3 mg/kg po; ONO-AE1-437 0.01 mg/kg sc
Protocol: Test Example 6: Evaluation Test of Action on Renin Activity in Rat Plasma
SD rats (male, 7-week old) under non-fasting conditions were used for the test. A test compound dissolved in a mixed solution of PEG 400:20% Tween 80:1 mol/L aqueous NaHCO3 solution=1:4:5 was orally administered (po) to the rat at a dose of 0.3 mg/kg (5 mL/kg). After 1 hour, an active metabolite (ONO-AE1-437) of an EP4 agonist ONO-4819 dissolved in physiological saline was subcutaneously administered to the back of the rat at a dose of 0.01 mg/kg (5 mL/kg). After 10 minutes, the rat was decapitated without anesthesia and about 2 mL of blood was collected in a tube containing 3 mg of EDTA.2Na. The blood sample was centrifuged (1000×g, 10 minutes, 4° C.) to separate the plasma. […] The Angiotensin I concentration in both samples was measured by an ELISA method, and a concentration obtained by subtracting a value of the blank reaction from the value of the sample incubated at 37° C. was taken as a renin activity in plasma (plasma renin activity (PRA)). By taking the PRA of the inhibitor rate of the group (n=5) not treated with ONO-AE1-437 as 100% and taking that of the group (n=4) treated with ONO-AE1-437 as 0%, the inhibitory rate of the test compound group (n=5) was calculated.

## Cc1nn(Cc2cc3ccccc3cn2)c(C(=O)N[C@@H](C)c2ccc(C(=O)O)cc2)c1Br [Compound A, 4-[(1S)-1-({[4-bromo-1-(isoquinolin-3-ylmethyl)-3-methyl-1H-pyrazol-5-yl]carbonyl}amino)ethyl]benzoic acid]
[1]
  Findings indicating abnormality (hematology, blood chemistry, histopathology of gastrointestinal organs and liver): not observed
[2]
  Inhibitory rate of UPCR (urinary protein-creatinine ratio): 47%
[3]
  Inhibition of the increase in PRA (plasma renin activity) due to the EP4 agonist ONO-AE1-437: 102%
